{
  "source": "paper PMC5099578",
  "about": "“A structural and functional study on the 2-C-methyl-D-erythritol-4-phosphate cytidyltransferase (IspD) from Bacillus subtilis” (Scientific Reports, 2016)",
  "biological_target": "T1, BsIspD (Bacillus subtilis, UniProt Q06755)",
  "T1 construct": "gene ispD; full length (699 bp gene, 232 residues built); pGEX-6P-1, expressed in E. coli, GST tag cut with PreScission protease; homodimer",
  "T1 sequence (Q06755 whole entry)": "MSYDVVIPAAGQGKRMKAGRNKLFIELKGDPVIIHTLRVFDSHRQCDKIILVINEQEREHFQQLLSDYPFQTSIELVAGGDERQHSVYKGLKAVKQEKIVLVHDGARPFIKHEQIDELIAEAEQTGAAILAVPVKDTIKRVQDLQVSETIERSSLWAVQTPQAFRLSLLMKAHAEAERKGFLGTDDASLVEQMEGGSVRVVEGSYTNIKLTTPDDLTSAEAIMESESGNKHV",
  "assay": "X-ray crystal structure of the complex, […] Å",
  "type": "binding",
  "conditions": "co-crystallised with 10 mM CTP and 10 mM MgCl2; active site, one CTP and one Mg2+ in molecule D only",
  "data": [
    {"smiles": "Nc1ccn([C@@H]2O[C@H](COP(=O)(O)OP(=O)(O)OP(=O)(O)O)[C@@H](O)[C@H]2O)c(=O)n1", "note": "[CTP]", "values": [
      {"measurement": "X-ray crystal structure of the complex, 1.90 Å", "value": "One CTP molecule and one magnesium ion were observed binding to the molecule D"}
    ]}
  ]
}
